Columns and labels:
COX-1 = target: T1, COX-1 (Homo sapiens, UniProt P23219); assay: Assay of COX-1 activity from U937 cell microsomes; format: biochemical; details: U937 cells, PGE2 synthesis in presence of AA
T1 construct: endogenous in cells; host or cells: U937 (human) cells; 100,000 x g microsomal fraction
Protocol: Compounds are tested as inhibitors of cyclooxygenase activity in whole cell cyclooxygenase assays. […] Cells used for these assays are human osteosarcoma 143 cells (which specifically express COX-2) and human U-937 cells (which specifically express COX-1). […] U 937 cells are pelleted by centrifugation at 500 x g for 5 min and washed once with phosphate-buffered saline and repelleted. Cells are resuspended in homogenization buffer consisting of 0.1 M Tris-HCl, pH 7.4, 10 mM EDTA, 2 µg/ml leupeptin, 2 µg/ml soybean trypsin inhibitor, 2 µg/ml aprotinin and 1 mM phenyl methyl sulfonyl fluoride. […] Assays are performed in duplicate in a final volume of 250 µl. Initially, 5 µl of DMSO vehicle or drug in DMSO are added to 20 µl of 0.1 M Tris-HCl buffer, pH 7.4 containing 10 mM EDTA in wells of a 96-deepwell polypropylene titre plate. 200 µl of the microsomal preparation are then added and pre-incubated for 15 min at room temperature before addition of 25 µl of […] arachidonic acid in […] Tris-HCl and 10 mM EDTA, pH 7.4. Samples are incubated for 40 min at room temperature and the reaction is stopped by the addition of 25 µl of 1 N HCl. Samples are neutralized with 25 µl of 1 N NaOH prior to quantitation of PGE2 content by radioimmunoassay (Dupont-NEN or Amersham assay kits). […]

Rat Paw Edema = assay: Rat paw edema assay (carrageenan); format: in vivo; details: male Sprague-Dawley rats, po 1 hr before carrageenan, paw volume 3 hr later; for ED50: Rattus norvegicus
Protocol: Male Sprague-Dawley rats (150-200 g) are fasted overnight and are given, po, either vehicle (1% methocel or 5% Tween 80) or a test compound. One hr later, a line is drawn using a permanent marker at the level above the ankle in one hind paw to define the area of the paw to be monitored. The paw volume (V0) is measured using a plethysmometer (Ugo-Basile, Italy) based on the principle of water displacement. The animals are then injected subplantarly with 50 µl of 1% carrageenan solution in saline (FMC Corp, Maine) into the paw using an insulin syringe with a 25-gauge needle (i.e. 500 µg carrageenan per paw). Three hr later, the paw volume (V3) is measured and the increases in paw volume (V3 - VO) are calculated. The animals are sacrificed by CO2 asphyxiation and the absence or presence of stomach lesions scored. Data is compared with the vehicle-control values and percent inhibition calculated. All treatment groups are coded to eliminate observer bias.

COX-2 = target: T2, COX-2 (Homo sapiens, UniProt P35354); assay: Human whole blood assay, COX-2 (LPS-induced PGE2 production); format: cell-based; details: Cox-1 U937 IC50 divided by Cox-2 Whole Blood IC50
T2 sequence (P35354 18-604): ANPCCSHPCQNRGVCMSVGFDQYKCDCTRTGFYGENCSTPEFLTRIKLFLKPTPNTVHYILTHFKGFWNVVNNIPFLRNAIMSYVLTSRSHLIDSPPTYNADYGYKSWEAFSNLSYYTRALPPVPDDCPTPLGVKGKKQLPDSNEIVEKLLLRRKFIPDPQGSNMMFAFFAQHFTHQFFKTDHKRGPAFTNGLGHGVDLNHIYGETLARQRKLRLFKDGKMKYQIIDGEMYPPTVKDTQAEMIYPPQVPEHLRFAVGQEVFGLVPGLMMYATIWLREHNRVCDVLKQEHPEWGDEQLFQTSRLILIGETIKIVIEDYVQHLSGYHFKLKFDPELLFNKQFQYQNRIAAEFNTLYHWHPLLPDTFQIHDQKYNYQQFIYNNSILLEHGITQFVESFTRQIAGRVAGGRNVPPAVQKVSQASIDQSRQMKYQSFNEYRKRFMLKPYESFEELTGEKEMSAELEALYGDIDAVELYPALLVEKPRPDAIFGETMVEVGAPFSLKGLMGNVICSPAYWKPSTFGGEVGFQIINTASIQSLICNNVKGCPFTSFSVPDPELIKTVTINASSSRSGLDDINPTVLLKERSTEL
Text: As well, platelets in whole blood contain a large amount of the COX-1 enzyme. Immediately following blood clotting, platelets are activated through a thrombin-mediated mechanism. […] Thus, the effect of test compounds on TxB2 levels following blood clotting can be examined and used as an index for COX-1 activity. Therefore, the degree of selectivity by the test compound can be determined by measuring the levels of PGE2 after LPS induction (COX-2) and TxB2 following blood clotting (COX-1) in the same assay. Fresh blood is collected in heparinized tubes by venipuncture from both male and female volunteers. The subjects have no apparent inflammatory conditions and have not taken any NSAIDs for at least 7 days prior to blood collection. […] At the end of the incubation, the blood is centrifuged at 12,000 x g for 5 minutes to obtain plasma. A 100µL aliquot of plasma is mixed with 400µL of methanol for protein precipitation. The supernatant is obtained and is assayed for PGE2 using a radioimmunoassay kit (Amersham, RPA#530) after conversion of PGE2 to its methyl oximate derivative according to the manufacturer's procedure.

T1 sequence (P23219 24-599): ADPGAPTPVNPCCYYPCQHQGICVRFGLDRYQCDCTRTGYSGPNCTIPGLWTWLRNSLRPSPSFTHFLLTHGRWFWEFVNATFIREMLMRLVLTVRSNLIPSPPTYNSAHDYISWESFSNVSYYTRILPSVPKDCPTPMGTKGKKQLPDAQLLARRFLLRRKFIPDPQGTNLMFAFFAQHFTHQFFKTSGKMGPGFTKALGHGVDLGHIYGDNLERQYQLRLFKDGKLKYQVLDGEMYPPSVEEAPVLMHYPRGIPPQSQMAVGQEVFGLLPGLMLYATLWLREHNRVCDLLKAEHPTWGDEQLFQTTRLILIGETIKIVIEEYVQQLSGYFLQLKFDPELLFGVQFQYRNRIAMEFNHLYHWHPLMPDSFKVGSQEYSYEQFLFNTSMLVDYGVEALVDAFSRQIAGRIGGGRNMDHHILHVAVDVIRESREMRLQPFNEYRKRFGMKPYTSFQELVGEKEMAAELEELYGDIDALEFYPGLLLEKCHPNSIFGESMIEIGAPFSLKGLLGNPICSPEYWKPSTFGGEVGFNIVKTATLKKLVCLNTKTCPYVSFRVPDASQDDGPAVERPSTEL

CS(=O)(=O)c1ccc(-c2cccnc2-c2ccccc2)cc1 [Aa, reference compound]
IC50 (COX-1): > 10 µM | Rat Paw Edema (ED50, mg/kg) (Rat Paw Edema): >10 mg/kg

CS(=O)(=O)c1ccc(-c2cccnc2-c2ccc(F)cc2)cc1 [Ab, reference compound]
Selectivity Ratio (COX-2): 0.45

CS(=O)(=O)c1ccc(-c2cc(C(F)(F)F)cnc2-c2cccnc2)cc1 [Example 7, 3-(4-Methylsulfonyl)phenyl-2-(3-pyridinyl)-5-trifluoromethylpyridine]
ED50 (Rat Paw Edema): 1.7 mg/kg

Cc1ccc(-c2ncc(Cl)cc2-c2ccc(S(C)(=O)=O)cc2)cn1 [Example 23, 5-Chloro-3-(4-methylsulfonyl)phenyl-2-(2-methyl-5-pyridinyl)pyridine]
ED50 (Rat Paw Edema): 0.6 mg/kg

CS(=O)(=O)c1ccc(-c2cc(Br)cnc2-c2cccnc2)cc1 [Example 32]
Selectivity Ratio (COX-2): >8.3

Reference: patent EP0912518B1, “SUBSTITUTED PYRIDINES AS SELECTIVE CYCLOOXYGENASE-2 INHIBITORS” (Merck Frosst Canada & Co., priority 1996, dated 1998)
